Measurements: US7960173B2, “Cardiac conduction system cells and uses thereof” (Board of Supervisors of Louisiana State University and …, priority 2004, dated 2011)

Test system: cGATA6-minK co-positive cells
Assay: Whole-cell patch-clamp of hyperpolarization-activated (If) current before and after cesium chloride
Assay type: cell-based, murine
Conditions: 10 mM cesium chloride, n=16 cells, FIG. 3(E),(F)
Procedure: On the day prior to recording, EBs were dispersed and plated onto glass coverslips coated with 0.1% gelatin. On the following day, coverslips were transferred to a recording chamber mounted on an inverted microscope (Nikon Diaphot-TMD) and superfused with extracellular recording solution. All experiments were conducted at room temperature (22-25° C.). Whole-cell voltage-clamp and current-clamp experiments were carried out using a standard Giga-seal patch-clamp method (Hamill O P et al. Pflugers Arch 391 (1981) 85). Recording electrodes were fabricated from 1.5 mm thin-walled borosilicate glass tubes (#7052. Garner Glass, Claremont, Calif.), using a Flaming-Brown microelectrode puller (P-97, Sutter Instruments, Novato, Calif.) and heat-polished before use. […] Recordings were performed using an Axoclamp 2B patch-clamp amplifier (Axon Instruments, Union City, Calif.). Data were filtered at 2 kHz, and data were acquired using Clampex 8 software (Axon Instruments). […]
In FIG. 3 (B) cGATA6-minK cells with morphologies similar to contracting atrial myocytes display atrial-like action potential waveforms (FIG. 3D). […] (F) Current-voltage relationship for hyperpolarization-activated currents measured in cGATA6-minK co-positive cells before (triangles) and after (squares) treatment with 10 mM cesium chloride. […]

With `[Cl-].[Cs+]` [cesium chloride] the “sensitivity of hyperpolarization-activated cation current (If) to cesium” value was “cesium-sensitive”.
